Like-named read-outs stand apart in the source and are kept apart here.
Tested on: HIV-1 (NL4-3 strain)
Experiment: Assay for inhibition of HIV replication (ViKinG; infected MT4-GFP cells)
Assay type: cell-based
Procedure: Assay for inhibition of HIV replication
MT4-GFP cells (250,000 cells/ml) were bulk-infected with HIV-1 (NL4-3 strain) at low multiplicity of infection (MOI) in RPMI+10% FBS for 24 hours. […] Test compounds were serial-diluted in DMSO on ECHO. The infected MT4-GFP cells were added to a 384-well poly-D-lysine coated black plate with clear bottom in which the diluted test compounds were placed. The cells were seeded at 8,000 cells per well and the final DMSO concentration was 0.4%. The infected cells (Green GFP cells) were quantified at both 24 and 48 hours post incubation using Acumen eX3. Viral reproductive ratio (R0) was determined using the number of infected cells at 48 hours divided by the number of infected cells at 24 hours. Percent viral growth inhibition was calculated by [1−(R−Rtripledrug)/(RDMSO−Rtripledrug)]*100. Compound potency IP or IC50 was determined by a 4-parameter dose response curve analysis.

[1] = Human immunodeficiency virus 1, NL43, MT4-GFP cells infected with HIV-1 NL4-3, 0% normal human serum (NHS), read-out: ViKinG IP (nM) with 0% NHS
[2] = Human immunodeficiency virus 1, NL43, MT4-GFP cells infected with HIV-1 NL4-3, 100% normal human serum (NHS), read-out: ViKinG IP (nM) with 100% NHS
[3] = MT4-GFP cells infected with HIV-1 NL4-3, 0% normal human serum (NHS), read-out: ViKinG IP (nM) with 0% NHS
[4] = MT4-GFP cells infected with HIV-1 NL4-3, 100% normal human serum (NHS), read-out: ViKinG IP (nM) with 100% NHS
[5] = Human immunodeficiency virus 1, NL43, MT4-GFP cells infected with HIV-1 NL4-3, 10% normal human serum (NHS), read-out: ViKinG IP (nM) with 10% NHS
[6] = MT4-GFP cells infected with HIV-1 NL4-3, 10% normal human serum (NHS), read-out: ViKinG IP (nM) with 10% NHS

Compound	IC50 [1]	IC50 [2]	IC50 [3]	also measured
CCN1C(=O)c2c(O)c(=O)c(-c3nnc(Cc4ccc(F)cc4F)s3)cn2N(C)C12CCC(c1nc(C)no1)CC2 (stereo not drawn) [Compound 46]	6.78 nM	139 nM	–	–
CCN1C(=O)c2c(O)c(=O)c(-c3nnc(Cc4ccc(F)cc4F)s3)cn2N(C)C12CCC(c1nc(C)no1)CC2 (stereo not drawn) [Compound 47]	–	–	11.6 nM	IC50 [4]: 186 nM
CCN1C(=O)c2c(O)c(=O)c(-c3nnc(Cc4ccc(F)cc4F)s3)cn2N(C)C12CCC(C(F)(F)F)CC2 (stereo not drawn) [Compound 49]	19.8 nM	–	–	IC50 [4]: 406 nM
CCN1C(=O)c2c(O)c(=O)c(-c3nnc(Cc4ccc(F)cc4F)s3)cn2N(C)C12CCC(C(F)(F)F)CC2 (stereo not drawn) [Compound 50]	–	–	25.6 nM	IC50 [4]: 5380 nM
CCN1C(=O)c2c(O)c(=O)c(-c3nnc(Cc4ccc(F)cc4F)s3)cn2N(C)C12CCC(O)CC2 (stereo not drawn) [Compound 51]	–	204 nM	8.5 nM	–
CCN1C(=O)c2c(O)c(=O)c(-c3nnc(Cc4ccc(F)cc4F)s3)cn2N(C)C12CCC(O)CC2 (stereo not drawn) [Compound 52]	–	–	2.33 nM	IC50 [4]: 130 nM
CCN1C(=O)c2c(O)c(=O)c(-c3nnc(Cc4ccc(F)cc4F)s3)cn2N(C)C12CCC(Oc1ccccc1)CC2 (stereo not drawn) [Compound 53]	–	1030 nM	15.7 nM	–
CCN1C(=O)c2c(O)c(=O)c(-c3nnc(Cc4ccc(F)cc4F)s3)cn2N(C)C12CCC(Oc1ccccc1)CC2 (stereo not drawn) [Compound 54]	–	–	82.8 nM	IC50 [4]: 1470 nM
CCN1C(=O)c2c(O)c(=O)c(-c3nnc(Cc4ccc(F)cc4F)s3)cn2N(C)C12CCC(CO)CC2 (stereo not drawn) [Compound 55]	6.46 nM	279 nM	–	–
CCN1C(=O)c2c(O)c(=O)c(-c3nnc(Cc4ccc(F)cc4F)s3)cn2N(C)C12CCC(F)(F)CC2 [Compound 56]	12 nM	1980 nM	–	–
CCc1noc(C2CCC3(CC2)N(CC)C(=O)c2c(O)c(=O)c(-c4nnc(Cc5ccc(F)cc5F)s4)cn2N3C)n1 (stereo not drawn) [Compound 57]	18.1 nM	145 nM	–	–
CCc1noc(C2CCC3(CC2)N(CC)C(=O)c2c(O)c(=O)c(-c4nnc(Cc5ccc(F)cc5F)s4)cn2N3C)n1 (stereo not drawn) [Compound 58]	–	–	14.1 nM	IC50 [4]: 228 nM
CCN1C(=O)c2c(O)c(=O)c(-c3nnc(Cc4ccc(F)cc4F)s3)cn2N(C)C12CCC(C)(OC)CC2 (stereo not drawn) [Compound 59]	8.66 nM	124 nM	–	–
CCCOC1CCC2(CC1)N(CC)C(=O)c1c(O)c(=O)c(-c3nnc(Cc4ccc(F)cc4F)s3)cn1N2C (stereo not drawn) [Compound 60]	–	226 nM	10.8 nM	–
CCCOC1CCC2(CC1)N(CC)C(=O)c1c(O)c(=O)c(-c3nnc(Cc4ccc(F)cc4F)s3)cn1N2C (stereo not drawn) [Compound 61]	–	–	23.8 nM	IC50 [4]: 221 nM
CCN1C(=O)c2c(O)c(=O)c(-c3nnc(Cc4ccc(F)cc4F)s3)cn2N(C)C12CCC(OC(C)C)CC2 (stereo not drawn) [Compound 62]	–	–	8.11 nM	IC50 [4]: 159 nM
CCN1C(=O)c2c(O)c(=O)c(-c3nnc(Cc4ccc(F)cc4F)s3)cn2N(C)C12CCC(OC(C)C)CC2 (stereo not drawn) [Compound 63]	–	–	27.6 nM	IC50 [4]: 391 nM
CCN1C(=O)c2c(O)c(=O)c(-c3nnc(Cc4ccc(F)cc4F)s3)cn2N(C)C12CCC(OCCOC)CC2 (stereo not drawn) [Compound 64]	3.3 nM	77.2 nM	–	–
CCN1C(=O)c2c(O)c(=O)c(-c3nnc(Cc4ccc(F)cc4F)s3)cn2N(C)C12CCC(OCCOC)CC2 (stereo not drawn) [Compound 65]	–	–	6.27 nM	IC50 [4]: 123 nM
CCN1C(=O)c2c(O)c(=O)c(-c3nnc(Cc4ccc(F)cc4F)s3)cn2N(C)C12CCC(OCCOCCOC)CC2 (stereo not drawn) [Compound 66]	12 nM	93.9 nM	–	–
CCN1C(=O)c2c(O)c(=O)c(-c3nnc(Cc4ccc(F)cc4F)s3)cn2N(C)C12CCC(OCCOCCOC)CC2 (stereo not drawn) [Compound 67]	–	–	12.5 nM	IC50 [4]: 160 nM
CN1C(=O)c2c(O)c(=O)c(-c3nnc(Cc4ccc(F)cc4F)s3)cn2N(C)C12CCC(OC(=O)C(Cl)Cl)CC2 (stereo not drawn) [Compound 68]	–	–	–	IC50 [5]: 10.5 nM
CN1C(=O)c2c(O)c(=O)c(-c3nnc(Cc4ccc(F)cc4F)s3)cn2N(C)C12CCC(C)(O)CC2 (stereo not drawn) [Compound 69]	–	–	22.6 nM	IC50 [6]: 84.7 nM
CN1C(=O)c2c(O)c(=O)c(-c3nnc(Cc4ccc(F)cc4F)s3)cn2N(C)C12CCC(C)(O)CC2 (stereo not drawn) [Compound 70]	–	–	9.9 nM	IC50 [6]: 39.1 nM
COC1(C)CCC2(CC1)N(C)C(=O)c1c(O)c(=O)c(-c3nnc(Cc4ccc(F)cc4F)s3)cn1N2C (stereo not drawn) [Compound 72]	6.07 nM	–	–	IC50 [5]: 9.93 nM

Compound	IC50 [1]	IC50 [2]	IC50 [3]	also measured
COC1(C)CCC2(CC1)N(C)C(=O)c1c(O)c(=O)c(-c3nnc(Cc4ccc(F)cc4F)s3)cn1N2C (stereo not drawn) [Compound 73]	–	–	7.04 nM	IC50 [6]: 11.9 nM
CN1C(=O)c2c(O)c(=O)c(-c3nnc(Cc4ccc(F)cc4F)s3)cn2N(C)C12CCC(CO)CC2 (stereo not drawn) [Compound 74]	6.84 nM	–	–	IC50 [5]: 23.6 nM
CN1C(=O)c2c(O)c(=O)c(-c3nnc(Cc4ccc(F)cc4F)s3)cn2N(C)C12CCC(N)CC2 (stereo not drawn) [Compound 75]	5.02 nM	–	–	IC50 [5]: 35.3 nM
CN1C(=O)c2c(O)c(=O)c(-c3nnc(Cc4ccc(F)cc4F)s3)cn2N(C)C12CCCCCC2 [Compound 76]	17.3 nM	761 nM	–	IC50 [5]: 23.6 nM
CN1C(=O)c2c(O)c(=O)c(-c3nnc(Cc4ccc(F)cc4F)s3)cn2N(C)C12C[C@H]1CC(O)C[C@H]1C2 (stereo partly drawn) [Compound 77]	12.8 nM	–	–	IC50 [5]: 58 nM
CN1C(=O)c2c(O)c(=O)c(-c3nnc(Cc4ccc(F)cc4F)s3)cn2N(C)C12CCC(O)C2 (stereo not drawn) [Compound 79]	3.11 nM	–	–	IC50 [5]: 40.9 nM
CN1C(=O)c2c(O)c(=O)c(-c3nnc(Cc4ccc(F)cc4F)s3)cn2N(C)C12CCC1C(=O)NC(=O)C1C2 (stereo not drawn) [Compound 80]	50.1 nM	915 nM	–	–
CN1C(=O)c2c(O)c(=O)c(-c3nnc(Cc4ccc(F)cc4F)s3)cn2N(C)C12CCC1C(=O)NC(=O)C1C2 (stereo not drawn) [Compound 81]	–	–	37.5 nM	IC50 [4]: 1610 nM
CC(=O)NC1CCC2(CC1)N(C)C(=O)c1c(O)c(=O)c(-c3nnc(Cc4ccc(F)cc4F)s3)cn1N2C (stereo not drawn) [Compound 82]	63.7 nM	2560 nM	–	–
CN1C(=O)c2c(O)c(=O)c(-c3nnc(Cc4ccc(F)cc4F)s3)cn2N(C)C12CCC(C)(C(=O)O)CC2 (stereo not drawn) [Compound 83]	–	–	151 nM	IC50 [6]: 755 nM
CN1C(=O)c2c(O)c(=O)c(-c3nnc(Cc4ccc(F)cc4F)s3)cn2N(C)C12CCC(C)(C(=O)O)CC2 (stereo not drawn) [Compound 84]	–	–	51.5 nM	IC50 [6]: 209 nM
CN1C(=O)c2c(O)c(=O)c(-c3nnc(Cc4ccc(F)cc4F)s3)cn2N(C)C12CCC(C)(CO)CC2 (stereo not drawn) [Compound 85]	12.5 nM	150 nM	–	IC50 [6]: 29.5 nM
CN1C(=O)c2c(O)c(=O)c(-c3nnc(Cc4ccc(F)cc4F)s3)cn2N(C)C12CCC(C)(CO)CC2 (stereo not drawn) [Compound 86]	–	–	6.34 nM	IC50 [6]: 94.3 nM; IC50 [4]: 185 nM
CCN1C(=O)c2c(O)c(=O)c(-c3nnc(Cc4ccc(F)cc4)s3)cn2N(C)C12CCC(P(=O)(O)O)C2 (stereo not drawn) [Compound 87]	626 nM	2890 nM	–	–
CN1C(=O)c2c(O)c(=O)c(-c3nnc(Cc4ccc(F)cc4F)s3)cn2N(C)C12CCC(C(=O)O)CC2 (stereo not drawn) [Compound 88]	–	–	1280 nM	IC50 [6]: 4200 nM
CN1C(=O)c2c(O)c(=O)c(-c3nnc(Cc4ccc(F)cc4F)s3)cn2N(C)C12CCC(C(=O)O)CC2 (stereo not drawn) [Compound 89]	–	–	44.9 nM	IC50 [6]: 322 nM
CCN1C(=O)c2c(O)c(=O)c(-c3nnc(Cc4ccc(F)cc4)s3)cn2N(C)C12CCC(C(=O)N(C)C)CC2 (stereo not drawn) [Compound 93]	–	–	–	IC50 [6]: 255 nM
CCN1C(=O)c2c(O)c(=O)c(-c3nnc(Cc4ccc(F)cc4)s3)cn2N(C)C12CCC(C(=O)N(C)C)CC2 (stereo not drawn) [Compound 94]	–	130 nM	–	IC50 [6]: 9.83 nM
CCN1C(=O)c2c(O)c(=O)c(-c3nnc(Cc4ccc(F)cc4)s3)cn2N(C)C12CCC(C(=O)NC1CC1)CC2 (stereo not drawn) [Compound 96]	8.63 nM	171 nM	–	IC50 [5]: 16.2 nM
CCN1C(=O)c2c(O)c(=O)c(-c3nnc(Cc4ccc(F)cc4)s3)cn2N(C)C12CCC(CC(=O)N(C)C)CC2 (stereo not drawn) [Compound 97]	–	133 nM	–	IC50 [5]: 23.4 nM
CCN1C(=O)c2c(O)c(=O)c(-c3nnc(Cc4ccc(F)cc4)s3)cn2N(C)C12CCC(CC(=O)N(C)C)CC2 (stereo not drawn) [Compound 98]	–	–	–	IC50 [6]: 32.2 nM; IC50 [4]: 168 nM
CCN1C(=O)c2c(O)c(=O)c(-c3nnc(Cc4ccc(F)cc4)s3)cn2N(C)C12CCC(CC(=O)N(C)C)C2 (stereo not drawn) [Compound 99]	–	122 nM	–	IC50 [5]: 34.9 nM
CCN1C(=O)c2c(O)c(=O)c(-c3nnc(Cc4ccc(F)cc4F)s3)cn2N(C)C12CCC(C(=O)N(C)C)CC2 (stereo not drawn) [Compound 100]	7.51 nM	111 nM	–	IC50 [6]: 6.47 nM
CCN1C(=O)c2c(O)c(=O)c(-c3nnc(Cc4ccc(F)cc4F)s3)cn2N(C)C12CCC(C(=O)N(C)C)CC2 (stereo not drawn) [Compound 101]	–	–	–	IC50 [6]: 37.5 nM
CCN1C(=O)c2c(O)c(=O)c(-c3nnc(Cc4ccc(F)cc4F)s3)cn2N(C)C12CCC(C(=O)N(C)CC(F)(F)F)CC2 (stereo not drawn) [Compound 102]	12.2 nM	170 nM	–	–
